Assay results published in article PMC7451048 (Drug metabolism letters, 2019).

Assays:
OATP1B1 [1] = conditions: cited from earlier work
OATP2B1 [2] = biological target: T1, OATP2B1 (Homo sapiens, UniProt O94956); conditions: model substrate at 5 μM (Fig. S2)
T1 sequence (O94956 1-709): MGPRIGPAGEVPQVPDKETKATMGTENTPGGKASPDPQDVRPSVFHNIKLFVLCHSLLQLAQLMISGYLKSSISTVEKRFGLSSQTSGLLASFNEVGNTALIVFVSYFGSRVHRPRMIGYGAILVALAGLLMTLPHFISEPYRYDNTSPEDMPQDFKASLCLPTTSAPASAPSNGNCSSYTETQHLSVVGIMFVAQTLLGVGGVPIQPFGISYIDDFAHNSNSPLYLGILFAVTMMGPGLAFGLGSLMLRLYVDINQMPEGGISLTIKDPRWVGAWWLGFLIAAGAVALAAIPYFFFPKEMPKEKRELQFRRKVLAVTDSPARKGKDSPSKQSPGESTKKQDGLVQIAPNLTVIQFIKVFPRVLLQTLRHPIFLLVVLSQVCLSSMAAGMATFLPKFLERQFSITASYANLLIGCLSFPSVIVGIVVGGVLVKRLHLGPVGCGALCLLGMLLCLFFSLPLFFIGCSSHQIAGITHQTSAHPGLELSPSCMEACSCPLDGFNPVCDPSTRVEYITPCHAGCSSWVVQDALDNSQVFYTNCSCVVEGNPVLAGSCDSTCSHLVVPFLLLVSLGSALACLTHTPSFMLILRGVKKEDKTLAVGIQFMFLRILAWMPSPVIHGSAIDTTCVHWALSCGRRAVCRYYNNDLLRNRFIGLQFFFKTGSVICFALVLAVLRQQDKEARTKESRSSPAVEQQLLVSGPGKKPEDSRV

OATP4A1 = biological target: T2, OATP4A1 (Homo sapiens, UniProt Q96BD0); assay: Cellular uptake assay, HEK/OATP4A1 vs HEK empty vector cells; conditions: model substrate at 5 μM (Fig. S2)
T2 sequence (Q96BD0 1-722): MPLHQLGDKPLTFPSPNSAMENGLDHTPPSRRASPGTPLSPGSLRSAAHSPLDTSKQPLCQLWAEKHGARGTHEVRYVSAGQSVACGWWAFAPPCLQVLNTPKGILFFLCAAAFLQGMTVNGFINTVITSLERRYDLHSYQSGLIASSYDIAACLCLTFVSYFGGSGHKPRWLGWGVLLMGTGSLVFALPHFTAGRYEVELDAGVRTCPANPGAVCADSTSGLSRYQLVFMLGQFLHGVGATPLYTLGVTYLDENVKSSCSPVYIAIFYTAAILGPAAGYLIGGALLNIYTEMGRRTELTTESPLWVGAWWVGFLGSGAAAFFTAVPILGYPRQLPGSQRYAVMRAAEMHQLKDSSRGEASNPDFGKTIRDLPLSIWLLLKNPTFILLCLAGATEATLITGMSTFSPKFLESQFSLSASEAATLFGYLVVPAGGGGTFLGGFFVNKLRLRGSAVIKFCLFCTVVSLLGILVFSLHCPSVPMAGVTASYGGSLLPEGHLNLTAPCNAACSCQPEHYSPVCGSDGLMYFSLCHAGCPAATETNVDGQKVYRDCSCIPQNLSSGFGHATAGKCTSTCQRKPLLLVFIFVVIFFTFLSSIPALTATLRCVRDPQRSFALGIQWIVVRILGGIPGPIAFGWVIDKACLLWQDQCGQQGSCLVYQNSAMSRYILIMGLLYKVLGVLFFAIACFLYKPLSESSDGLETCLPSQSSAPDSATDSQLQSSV

BCRP = biological target: T3, BCRP (Homo sapiens, UniProt Q9UNQ0); assay: Plasma membrane vesicle transport assay, BCRP vesicles; type: in vitro ADME; conditions: model substrate at 5 μM (Fig. S5)
T3 sequence (Q9UNQ0 1-655): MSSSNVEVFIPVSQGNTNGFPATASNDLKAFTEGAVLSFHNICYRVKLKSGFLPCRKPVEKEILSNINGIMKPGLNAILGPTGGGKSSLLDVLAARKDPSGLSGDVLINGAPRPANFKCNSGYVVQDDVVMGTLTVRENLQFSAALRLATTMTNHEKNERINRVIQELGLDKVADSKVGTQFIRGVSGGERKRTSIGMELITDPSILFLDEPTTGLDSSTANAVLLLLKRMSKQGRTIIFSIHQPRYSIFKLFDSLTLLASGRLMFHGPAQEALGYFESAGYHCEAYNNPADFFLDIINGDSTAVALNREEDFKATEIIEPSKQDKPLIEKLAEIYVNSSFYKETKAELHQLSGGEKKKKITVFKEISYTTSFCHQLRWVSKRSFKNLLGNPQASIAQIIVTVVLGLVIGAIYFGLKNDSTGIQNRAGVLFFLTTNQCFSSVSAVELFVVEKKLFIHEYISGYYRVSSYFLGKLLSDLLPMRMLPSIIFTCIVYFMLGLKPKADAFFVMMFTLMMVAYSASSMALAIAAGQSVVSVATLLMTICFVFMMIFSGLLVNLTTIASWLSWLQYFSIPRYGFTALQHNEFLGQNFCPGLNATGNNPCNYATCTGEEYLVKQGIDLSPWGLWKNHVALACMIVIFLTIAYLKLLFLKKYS

OATP1B1 [3] = biological target: T4, OATP1B1 (Homo sapiens, UniProt Q9Y6L6); conditions: model substrate at 5 μM (Fig. S2)
T4 sequence (Q9Y6L6 1-691): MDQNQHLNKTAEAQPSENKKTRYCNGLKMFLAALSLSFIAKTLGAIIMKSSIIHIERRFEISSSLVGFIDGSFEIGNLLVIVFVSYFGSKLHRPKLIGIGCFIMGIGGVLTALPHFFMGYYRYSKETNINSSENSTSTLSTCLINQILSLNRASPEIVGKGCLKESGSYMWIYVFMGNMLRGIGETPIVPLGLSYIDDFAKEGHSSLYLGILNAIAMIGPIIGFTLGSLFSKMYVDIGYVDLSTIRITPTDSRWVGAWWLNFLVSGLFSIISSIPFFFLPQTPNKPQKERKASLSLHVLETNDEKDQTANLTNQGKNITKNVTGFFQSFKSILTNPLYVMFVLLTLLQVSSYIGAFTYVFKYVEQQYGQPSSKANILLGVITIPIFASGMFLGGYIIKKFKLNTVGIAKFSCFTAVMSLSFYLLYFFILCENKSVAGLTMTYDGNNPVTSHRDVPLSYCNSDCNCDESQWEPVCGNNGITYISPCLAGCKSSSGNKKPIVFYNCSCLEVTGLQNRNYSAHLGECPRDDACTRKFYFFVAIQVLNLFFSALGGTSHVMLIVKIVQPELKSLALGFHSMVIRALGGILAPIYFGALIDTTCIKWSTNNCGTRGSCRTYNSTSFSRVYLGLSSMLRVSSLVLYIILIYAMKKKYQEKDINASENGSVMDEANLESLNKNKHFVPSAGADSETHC

OATP1B3 [4] = biological target: T5, OATP1B3 (Homo sapiens, UniProt Q9NPD5); conditions: model substrate at 5 μM (Fig. S2)
T5 sequence (Q9NPD5 1-702): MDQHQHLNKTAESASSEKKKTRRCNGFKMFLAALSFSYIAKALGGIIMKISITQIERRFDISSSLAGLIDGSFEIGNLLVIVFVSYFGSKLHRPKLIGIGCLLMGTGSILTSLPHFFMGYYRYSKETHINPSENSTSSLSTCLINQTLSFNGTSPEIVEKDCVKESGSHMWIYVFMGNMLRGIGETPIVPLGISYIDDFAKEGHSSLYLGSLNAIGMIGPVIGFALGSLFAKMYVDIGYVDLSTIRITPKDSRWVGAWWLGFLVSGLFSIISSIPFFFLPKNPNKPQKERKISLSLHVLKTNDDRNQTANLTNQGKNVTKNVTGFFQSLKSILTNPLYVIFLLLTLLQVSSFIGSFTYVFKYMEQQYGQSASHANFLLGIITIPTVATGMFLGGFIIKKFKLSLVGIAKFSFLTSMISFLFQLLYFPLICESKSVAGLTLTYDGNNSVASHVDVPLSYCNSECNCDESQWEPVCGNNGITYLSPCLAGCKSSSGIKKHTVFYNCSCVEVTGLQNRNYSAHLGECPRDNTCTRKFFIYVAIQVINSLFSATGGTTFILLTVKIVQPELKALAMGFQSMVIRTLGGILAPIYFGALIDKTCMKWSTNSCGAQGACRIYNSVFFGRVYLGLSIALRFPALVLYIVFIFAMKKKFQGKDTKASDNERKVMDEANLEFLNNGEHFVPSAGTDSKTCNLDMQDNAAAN

MRP2 = MRP2 (Homo sapiens, UniProt Q92887); assay: Plasma membrane vesicle transport assay, MRP2 vesicles; conditions: model substrate at 5 μM (Fig. S5)
OATP1B3 [5] = conditions: read-out: IC50 for OATP1B3; reported; ref [22], [41]–[43]; cited from earlier work
OATP2B1 [6] = conditions: read-out: IC50 for OATP2B1; reported; ref [22], [41]–[43]; cited from earlier work
OCT1 = biological target: T6, OCT1 (Homo sapiens, UniProt O15245); assay: Cellular uptake assay, HEK/OCT1 vs HEK empty vector cells; conditions: model substrate (Fig. S2)
T6 sequence (O15245 1-554): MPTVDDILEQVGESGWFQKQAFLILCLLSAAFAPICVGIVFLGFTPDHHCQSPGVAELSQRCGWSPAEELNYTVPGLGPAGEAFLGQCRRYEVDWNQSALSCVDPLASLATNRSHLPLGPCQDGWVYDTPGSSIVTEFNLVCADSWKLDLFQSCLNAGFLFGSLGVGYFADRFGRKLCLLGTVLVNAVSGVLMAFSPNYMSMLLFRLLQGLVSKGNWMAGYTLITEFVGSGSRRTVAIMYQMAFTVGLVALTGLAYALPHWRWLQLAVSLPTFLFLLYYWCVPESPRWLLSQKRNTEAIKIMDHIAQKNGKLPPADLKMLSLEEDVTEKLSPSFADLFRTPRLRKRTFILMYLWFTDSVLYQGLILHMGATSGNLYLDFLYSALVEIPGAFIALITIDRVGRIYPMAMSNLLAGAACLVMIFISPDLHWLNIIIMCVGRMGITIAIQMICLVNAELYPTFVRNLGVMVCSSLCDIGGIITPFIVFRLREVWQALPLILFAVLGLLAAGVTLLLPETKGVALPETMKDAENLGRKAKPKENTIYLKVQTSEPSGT

OAT = conditions: read-out: IC50 (OAT inhibitor); reported; ref [44]–[47]; cited from earlier work
[7] = substrate: CC(NC(C)(C)C)C(=O)c1cccc(Cl)c1

Chain of MRP2 (Q92887 whole entry): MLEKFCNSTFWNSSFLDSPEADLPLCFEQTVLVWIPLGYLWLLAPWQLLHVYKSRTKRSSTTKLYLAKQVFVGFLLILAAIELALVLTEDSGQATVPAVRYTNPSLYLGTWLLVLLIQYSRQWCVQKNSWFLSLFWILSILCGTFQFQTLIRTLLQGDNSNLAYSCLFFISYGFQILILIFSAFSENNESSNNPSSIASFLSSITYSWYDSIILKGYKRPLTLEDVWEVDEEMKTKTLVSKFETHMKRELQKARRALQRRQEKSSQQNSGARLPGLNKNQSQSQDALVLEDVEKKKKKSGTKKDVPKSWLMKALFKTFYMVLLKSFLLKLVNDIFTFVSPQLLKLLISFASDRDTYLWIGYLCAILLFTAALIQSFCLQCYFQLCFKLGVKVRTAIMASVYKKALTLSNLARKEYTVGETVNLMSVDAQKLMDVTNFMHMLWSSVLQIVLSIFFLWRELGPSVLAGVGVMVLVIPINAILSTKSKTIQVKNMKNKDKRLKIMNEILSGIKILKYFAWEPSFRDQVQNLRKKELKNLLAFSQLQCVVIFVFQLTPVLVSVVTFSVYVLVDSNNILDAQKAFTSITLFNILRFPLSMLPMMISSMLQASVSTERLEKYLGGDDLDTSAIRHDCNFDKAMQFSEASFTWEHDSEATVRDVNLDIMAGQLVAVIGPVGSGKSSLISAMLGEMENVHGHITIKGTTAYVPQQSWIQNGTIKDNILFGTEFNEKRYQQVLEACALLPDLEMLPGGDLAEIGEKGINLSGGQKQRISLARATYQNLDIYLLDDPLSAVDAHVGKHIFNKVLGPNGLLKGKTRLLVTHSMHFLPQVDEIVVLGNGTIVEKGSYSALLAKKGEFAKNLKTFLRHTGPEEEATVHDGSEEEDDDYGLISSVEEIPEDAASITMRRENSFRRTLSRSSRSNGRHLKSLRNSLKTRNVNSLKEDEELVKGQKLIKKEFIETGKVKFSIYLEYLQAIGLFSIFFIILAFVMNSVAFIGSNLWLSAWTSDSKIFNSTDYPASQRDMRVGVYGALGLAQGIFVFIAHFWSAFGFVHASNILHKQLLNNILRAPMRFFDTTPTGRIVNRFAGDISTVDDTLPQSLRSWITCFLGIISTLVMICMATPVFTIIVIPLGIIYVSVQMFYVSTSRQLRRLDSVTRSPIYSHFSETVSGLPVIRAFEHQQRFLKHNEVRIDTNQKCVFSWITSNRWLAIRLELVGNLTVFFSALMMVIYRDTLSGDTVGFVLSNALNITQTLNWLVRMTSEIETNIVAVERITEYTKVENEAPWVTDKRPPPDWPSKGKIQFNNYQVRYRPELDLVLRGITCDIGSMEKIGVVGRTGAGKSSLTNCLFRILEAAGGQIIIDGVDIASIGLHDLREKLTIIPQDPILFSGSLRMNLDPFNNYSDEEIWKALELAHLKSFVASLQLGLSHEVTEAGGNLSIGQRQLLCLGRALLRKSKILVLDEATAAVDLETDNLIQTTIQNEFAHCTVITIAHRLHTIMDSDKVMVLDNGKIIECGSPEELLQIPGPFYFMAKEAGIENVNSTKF

## COC(=O)[C@H](c1ccccc1Cl)N1CCc2sccc2C1 [Clopidogrel]
OATP1B1 [1]; ref [26]
  Inhibition of OATP1B1: effective inhibitor

## C[C@]12CC[C@@H]3c4ccc(OS(=O)(=O)O)cc4CC[C@H]3[C@@H]1CCC2=O [E1-3-S, Estrone-3-sulfate, reference compound]
OATP2B1 [2]
  Uptake into HEK/OATP2B1 cells relative to HEK vector control cells: 42 times
OATP4A1
  Uptake into HEK/OATP4A1 cells relative to HEK vector control cells: 20 times

## C[C@]12CC[C@@H]3c4ccc(O)cc4CC[C@H]3[C@@H]1CC[C@@H]2O[C@@H]1O[C@H](C(=O)O)[C@@H](O)[C@H](O)[C@H]1O [E2-17β-G, estradiol-17β-glucuronide, reference compound]
BCRP
  Uptake into BCRP vesicles in the presence of ATP relative to AMP: 10–100 times
OATP1B1 [3]
  Uptake into CHO/OATP1B1 cells relative to CHO wild-type parent cells: approximately 6 times
OATP1B3 [4]
  Uptake into CHO/OATP1B3 cells relative to CHO wild-type parent cells: ~2 times
MRP2
  Uptake into MRP2 vesicles in the presence of ATP relative to AMP: 10–100 times

## CO[C@H]1/C=C/O[C@@]2(C)Oc3c(C)c(O)c4c(O)c(c(/C=N/N5CCN(C)CC5)c(O)c4c3C2=O)NC(=O)/C(C)=C\C=C\[C@H](C)[C@H](O)[C@@H](C)[C@@H](O)[C@@H](C)[C@H](OC(C)=O)[C@@H]1C [RIF, Rifampin]
OATP1B1 [1]; read-out: IC50 for OATP1B1, reported, ref [22], [41]–[43]
  IC50: 1500 to 3250 nM
OATP1B3 [5]
  IC50: 1500 to 2600 nM
OATP2B1 [6]
  IC50: 2100 nM

## C[n+]1ccc(-c2ccccc2)cc1 [[^3H]-MPP^+, reference compound]
OCT1
  Uptake into OCT1-overexpressing cells relative to vector control cells: 15 times

## CCCN(CCC)S(=O)(=O)c1ccc(C(=O)O)cc1 [probenecid]
OAT
  IC50: 3.1 to 7.4 µM

B1: OATP1B1 (Homo sapiens) (protein)
chain: MDQNQHLNKTAEAQPSENKKTRYCNGLKMFLAALSLSFIAKTLGAIIMKSSIIHIERRFEISSSLVGFIDGSFEIGNLLVIVFVSYFGSKLHRPKLIGIGCFIMGIGGVLTALPHFFMGYYRYSKETNINSSENSTSTLSTCLINQILSLNRASPEIVGKGCLKESGSYMWIYVFMGNMLRGIGETPIVPLGLSYIDDFAKEGHSSLYLGILNAIAMIGPIIGFTLGSLFSKMYVDIGYVDLSTIRITPTDSRWVGAWWLNFLVSGLFSIISSIPFFFLPQTPNKPQKERKASLSLHVLETNDEKDQTANLTNQGKNITKNVTGFFQSFKSILTNPLYVMFVLLTLLQVSSYIGAFTYVFKYVEQQYGQPSSKANILLGVITIPIFASGMFLGGYIIKKFKLNTVGIAKFSCFTAVMSLSFYLLYFFILCENKSVAGLTMTYDGNNPVTSHRDVPLSYCNSDCNCDESQWEPVCGNNGITYISPCLAGCKSSSGNKKPIVFYNCSCLEVTGLQNRNYSAHLGECPRDDACTRKFYFFVAIQVLNLFFSALGGTSHVMLIVKIVQPELKSLALGFHSMVIRALGGILAPIYFGALIDTTCIKWSTNNCGTRGSCRTYNSTSFSRVYLGLSSMLRVSSLVLYIILIYAMKKKYQEKDINASENGSVMDEANLESLNKNKHFVPSAGADSETHC
[7]
  Km: 31 ± 7 µM
  Vmax: 1407±91 pmol/mg protein/min
